Measurements as given in the supplement of paper PMC4862054.

Tests used:
[1] = test system: CAL-85-1; assay: normalised viability (% of control), CellTiter-Blue; higher = more viable cells (about 100 = DMSO control); conditions: 10 nM; incubation time: 72 h
Procedure: (§1)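 DSRT, CellTiter-Blue viability, 72 h incubation. Signal is normalised to DMSO and benzethonium chloride controls. Value is the normalised response at dose 3.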

[2] = test system: MDA-MB-468; assay: as above; conditions: 100 nM; incubation time: 72 h
Procedure: as §1

[3] = test system: CAL-148; assay: as above; conditions: 10 nM; incubation time: 72 h
Procedure: as §1

[4] = test system: HCC1143; assay: as above; conditions: 100 nM; incubation time: 72 h
Procedure: as §1

[5] = test system: HCC1599; assay: as above; conditions: 100 nM; incubation time: 72 h
Procedure: as §1

[6] = test system: BT-474; assay: as above; conditions: 100 nM; incubation time: 72 h
Procedure: as §1

[7] = test system: DU-4475; assay: as above; conditions: 10 nM; incubation time: 72 h
Procedure: as §1

[8] = test system: HCC1937; assay: as above; conditions: 100 nM; incubation time: 72 h
Procedure: as §1

[9] = test system: HDQ-P1; assay: as above; conditions: 10 nM; incubation time: 72 h
Procedure: as §1

[10] = test system: CAL-120; assay: as above; conditions: 100 nM; incubation time: 72 h
Procedure: as §1

[11] = test system: MDA-MB-231; assay: as above; conditions: 100 nM; incubation time: 72 h
Procedure: as §1

[12] = test system: MDA-MB-453; assay: as above; conditions: 10 nM; incubation time: 72 h
Procedure: as §1

[13] = test system: CAL-51; assay: as above; conditions: 10 nM; incubation time: 72 h
Procedure: as §1

[14] = test system: HCC1599; assay: drug sensitivity score (DSS), CellTiter-Blue viability (DSS (AUC-based score)); higher = stronger viability inhibition; extreme values may be limits of the assay; conditions: incubation time: 72 h
Procedure, shortened: (§2)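 Cells from breast cancer lines were grown with compound for 72 h in 384-well plates, using a 5- or 9-concentration series. CellTiter-Blue fluorescence (560/590 nm) served as the viability readout, normalised plate by plate to 0.1 % DMSO and a positive kill control. A drug sensitivity score was computed as the area under the fitted dose-response curve.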

[15] = test system: BT-474; assay: as above; conditions: incubation time: 72 h
Procedure, shortened: as §2

[16] = test system: MDA-MB-436; assay: as above; conditions: incubation time: 72 h
Procedure, shortened: as §2

[17] = test system: DU-4475; assay: as above; conditions: incubation time: 72 h
Procedure, shortened: as §2

[18] = test system: HCC1937; assay: as above; conditions: incubation time: 72 h
Procedure, shortened: as §2

[19] = test system: MFM-223; assay: as above; conditions: incubation time: 72 h
Procedure, shortened: as §2

[20] = test system: MDA-MB-231; assay: as above; conditions: incubation time: 72 h
Procedure, shortened: as §2

[21] = test system: Hs578T; assay: as above; conditions: incubation time: 72 h
Procedure, shortened: as §2

[22] = test system: BT-549; assay: as above; conditions: incubation time: 72 h
Procedure, shortened: as §2

[23] = test system: MDA-MB-453; assay: as above; conditions: incubation time: 72 h
Procedure, shortened: as §2

CS(=O)(=O)c1ccc(C(=O)Nc2ccc(Cl)c(-c3ccccn3)c2)c(Cl)c1 [Vismodegib]
normalised viability [1]: 114% | normalised viability [2]: 113% | normalised viability [3]: 96.8% | normalised viability [4]: 87.7% | normalised viability [5]: 86.2% | normalised viability [6]: 101% | normalised viability [7]: 108% | normalised viability [8]: 107% | normalised viability [9]: 105% | normalised viability [10]: 87.7% | normalised viability [11]: 94% | normalised viability [12]: 108% | normalised viability [13]: 103% | drug sensitivity score [14]: 0 | drug sensitivity score [15]: 0 | drug sensitivity score [16]: 4.6 | drug sensitivity score [17]: 0 | drug sensitivity score [18]: 1.01 | drug sensitivity score [19]: 0 | drug sensitivity score [20]: 0 | drug sensitivity score [21]: 0 | drug sensitivity score [22]: 0 | drug sensitivity score [23]: 0
